Results from US12551526B2, “Enterically delivered bitter oligopeptides for the treatment for type 2 diabetes” (Cedars-Sinai Medical Center, priority 2015, dated 2026).
Changes are numbered by the printed parent chain. “Also recorded” adds a separate entry of the source. Where two headings read alike, the source gives them in different places.

Assays:
hTAS2R38PAV = target: T1, hTAS2R38PAV (Homo sapiens, UniProt P59533); conditions: taster haplotype; cited from earlier work
T1 sequence (P59533 1-333): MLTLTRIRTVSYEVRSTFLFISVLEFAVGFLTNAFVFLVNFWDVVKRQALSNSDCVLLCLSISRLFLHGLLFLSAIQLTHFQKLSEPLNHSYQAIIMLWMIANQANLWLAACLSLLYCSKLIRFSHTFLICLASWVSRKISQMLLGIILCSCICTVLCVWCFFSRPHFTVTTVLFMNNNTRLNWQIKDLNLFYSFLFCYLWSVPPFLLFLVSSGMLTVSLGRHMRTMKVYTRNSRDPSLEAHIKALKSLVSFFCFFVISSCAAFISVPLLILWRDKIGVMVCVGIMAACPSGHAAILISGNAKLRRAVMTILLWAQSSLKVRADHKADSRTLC

HuTu-80 cells [1] = conditions: previous studies; cited from earlier work
hTAS2R38AVI = target: T2, hTAS2R38AVI (Homo sapiens, UniProt P59533, A262V); conditions: non-taster haplotype; cited from earlier work
T2 sequence (P59533 1-333 A262V): T1 sequence (P59533 1-333) with A262V

TAS2R38 = target: T3, TAS2R38 (Homo sapiens, UniProt P59533); test: GLP-1 release in HuTu-80 cells with TAS2R38 siRNA knockdown; format: cell-based; conditions: siTAS2R38 versus siCONTROL, 30 min
T3 construct: Cultured HuTu-80 cells were transfected with single and mixed oligonucleotide siRNAs for TAS2R38; host or cells: HuTu-80
T3 sequence (P59533 1-333): T1 sequence (P59533 1-333)
Method: In order to determine the specific GPCR mediating the response of a particular ligand, we performed in vitro RNA silencing of TAS2R38. RNA silencing was performed using a commercial kit (FlexiTube siRNA, Qiagen) consisting of 4 predesigned oligonucleotides that specifically target each gene transcript. Each kit also had accompanying controls and quantifying assays for detection of gene knockdown. Cultured HuTu-80 cells were transfected with single and mixed oligonucleotide siRNAs for TAS2R38 using HiPerFect transfection reagent (Qiagen) or Lipofectamine 2000 (Life Tech) according to the procedure recommended by the manufacturer. Cells were maintained in the basal medium for up to 48 h. Gene knockdown was evaluated by RT-qPCR and Western blot by suitable antibody to ensure inhibition occurred. […] Dose-response curve of the ligand with and without siRNA treatment was generated.
FIGS. 6, 7, and 8 show the receptor expression and knockdown in HuTu-80 cells using a TAS2R38 receptor siRNA.
Conditioned media were collected and frozen until GLP-1 measurement. Values are mean±SD, N=3. GLP-1 is measured using Luminex assay.

HuTu-80 cells [2] = test: GLP-1 release from cultured HuTu-80 cells (Luminex assay); format: cell-based, human; conditions: FIG. 3; printed as based on in vivo studies in mice
HuTu-80 cells [3] = test: as above; format: cell-based, human; conditions: for increase in GLP-1 over the basal release / GLP-1 release compared with TAS2R38 ligands PTC and PTU: HuTu-80 cells; for increase in GLP-1 over the basal release: 30 min, FIG. 9A; for GLP-1 release: HuTu-80 cells treated 30 min, GLP-1 in conditioned media; for GLP-1 release compared with TAS2R38 ligands PTC and PTU: FIG. 9B, PTC and PTU 10 mM
Method: HuTu-80 cells were untreated (zero-time) or treated with vehicle and various phytochemicals at indicated concentrations for 30 min. […] Values are mean±SE, N=3, *P<0.05, **P<0.01
HuTu-80 cells (HTB-40, ATCC) were propagated in Dulbecco's modified Eagle's medium (DMEM) containing 4 mM L-glutamine, 1.5 g/L sodium bicarbonate, and 4.5 g/L glucose, supplemented with 10% FBS and PSG antibiotic mix and maintained at 10% CO2 and 37° C. For experiments, these cells were seeded in 6-well plates or […] tissue culture dishes, propagated to confluence (5-7 days) and arrested in serum-free media overnight prior to treatments. Prior to the experiment, spent media was replaced with OPTI-MEM (Gibco, Life Technologies, Grand Island, NY) containing Halt Protease and Phosphatase Inhibitor cocktail (Thermo Fisher Scientific, Rockford, IL) and individual wells dosed for 30 min. […] The media from cells was collected and frozen for subsequent peptide hormone release measurement using a Luminex MAGPIX metabolism multiplexing assay kit (HMHMAG-34K) following the manufacturer's instructions.

GLP-1 release = test: In vivo GLP-1 release in mice after gastric gavage; conditions: PTU-cellulose 5 g/kg, PTU 200 mg/kg, FIG. 4B
Method: FIG. 4A Synthesis of PTU-cellulose.
Retro-orbital blood was obtained and GLP-1 was measured at regular intervals.
The molecules were administered by gastric gavage to pathogen-free, 6-to-8-week-old male BALB/c mice. […] The cellulose alone had no effect.

NC(=S)Nc1ccccc1 [PTC, Phenylthiocarbamide]
receptor response (hTAS2R38PAV): strong response at μM concentrations
GLP-1 release (HuTu-80 cells [1]): GLP-1 release
receptor response (hTAS2R38AVI): does not respond

YGLF [BPx1, bitter oligopeptide derived from milk-whey proteins]
GLP-1 release when TAS2R38 expression is knocked down (TAS2R38): predominantly through TAS2R38; also recorded: decreased
potency rank among the four oligopeptides (HuTu-80 cells [2]): most potent

O=c1oc2c(O)c(O)cc3c(=O)oc4c(O)c(O)cc1c4c23 [ellagic acid]
increase in GLP-1 over the basal release (HuTu-80 cells [3]): significant increases

O=c1oc2cc(O)ccc2c2ccc(O)cc12 [urolithin A]
increase in GLP-1 over the basal release (HuTu-80 cells [3]): significant increases

CCCCCCCCCCCCCCCC(=O)O [palmitate, palmitic acid]
GLP-1 release (HuTu-80 cells [3]): GLP-1 secretory response was also observed
GLP-1 release compared with TAS2R38 ligands PTC and PTU (HuTu-80 cells [3]): stimulate GLP-1 release comparable to that by TAS2R38 ligands PTC and PTU

CCCc1cc(=O)[nH]c(=S)[nH]1 [PTU, 6-n-propylthiouracil]
GLP-1 release when TAS2R38 expression is knocked down (TAS2R38): right-shifted
GLP-1 release (HuTu-80 cells [3]): caused GLP-1 release
GLP-1 release into the blood (GLP-1 release): caused GLP-1 release into the blood

Ala-Ala-Ala-Ala (AAAA; printed: Ala-Ala-Ala-Ala) [PolyAla, scrambled PolyAla control peptide]
GLP-1 release (HuTu-80 cells [3]): in effective at causing GLP-1 release

CCC(=O)O [propionate]
GLP-1 release (HuTu-80 cells [3]): GLP-1 secretory response was also observed
GLP-1 release compared with TAS2R38 ligands PTC and PTU (HuTu-80 cells [3]): stimulate GLP-1 release comparable to that by TAS2R38 ligands PTC and PTU

YPFPGPIPN [BPx2, bitter oligopeptide derived from milk-whey proteins]
potency rank among the four oligopeptides (HuTu-80 cells [2]): most potent

CN(C)C(=N)N=C(N)N [metformin]
GLP-1 release (HuTu-80 cells [3]): can activate GLP-1 release

CC1(C)CC[C@]2(C(=O)O)CC[C@]3(C)C(=CC[C@@H]4[C@@]5(C)CC[C@H](O)C(C)(C)[C@@H]5CC[C@]43C)[C@@H]2C1 [oleanolic acid]
increase in GLP-1 over the basal release (HuTu-80 cells [3]): significant increases
